Here are results for 27 molecules from patent publication US11767332B2, “Glucose-sensitive albumin-binding derivatives” (Novo Nordisk A/S, priority 2017, dated 2023).

The structures appear in SMILES notation.

A short description of test [1]: Alizarin red (ARS) assay, glucose binding affinity. The settings on record: 20 mM phosphate buffer pH 7.4, room temperature. As to the method: (§1) The alizarin-red binding assay is a colorimetric assay used to determine the inhibition affinity of boronate compounds to glucose. The assay is based on a colour shift of alizarin-red upon binding to boronate, which shift can be followed by change in absorbance in the 330-340 nm region.
(§2) After 5 minutes of centrifugation at 4000 rpm, the plate is placed in a multi-well spectrometer (SpectraMax, Molecular Devices) for absorption detection.
(§3) The analysis is carried out at room temperature with absorption readings at 330, 340 and 520 nm, respectively. Data obtained for absorption versus concentration of boronate is then fitted (Prism 7, GraphPad) with a sigmoidal function to obtain the Kd value of boronate and ARS.
(§4) Upon complete dissolution of the compound, 200 μM of Alizarin red (ARS) is added to the solution. The ARS-boronate solution is then aliquoted into a 96 multiwell plate (black, flat and clear bottom) 1:1 with appropriate carbohydrate. In particular, D-glucose and L-lactate solutions are prepared in a 20 mM phosphate buffer pH 7.4 at these concentrations respectively: 1000, 500, 250, 100, 50, 25, 10, 5, 2.5, 1, 0.25, 0.1 mM and 2500, 1000, 500, 100, 50, 10, 5, 1, 0.5, 0.1, 0.05, 0.01 mM. The plate with ARS-boronate mixed with carbohydrate is incubated 20 minutes at room temperature. After 5 minutes of centrifugation at 4000 rpm the plate is placed in a multiwell spectrometer (Spectra Max, Molecular Devices) for absorption detection.
(§5) The analysis is carried out at room temperature with absorption readings at 330, 340 and 520 nm, respectively.

A short description of test [2]: Alizarin red (ARS) assay, lactate binding affinity. The settings on record: 20 mM phosphate buffer pH 7.4, room temperature, N.D. = not detectable. The method, then: as §1, §2, §3, §4, §5

A word on the Kd: it is the constant that tells how readily two partners part at equilibrium. Lower therefore signals higher affinity.

As to `O=C(O)CCC(=O)N1C[C@@H](NC(=O)c2cc3c(c(C(F)(F)F)c2)COB3O)[C@H](NC(=O)c2cc3c(c(C(F)(F)F)c2)COB3O)C1` [Example 29, 4-[(3R,4R)-3,4-bis[[1-hydroxy-4-(trifluoromethyl)-3H-2,1-benzoxaborole-6-carbonyl]amino]pyrrolidin-1-yl]-4-oxobutanoic acid], binding in test [1] was put at a Kd of 2.3 mM.

As for `O=C(O)CNC(=O)c1cc(B(O)O)cc(S(=O)(=O)c2cc(B(O)O)cc(S(F)(F)(F)(F)F)c2)c1` [Example 28, (3-Borono-5-((3-borono-5-(pentafluoro-λ^6-sulfanyl)phenyl)sulfonyl)benzoyl)glycine], the Kd in test [1] was 0.3 mM.

Turning to `O=C(O)CNC(=O)c1cc(B(O)O)cc(S(=O)(=O)c2cc(F)cc(B(O)O)c2)c1` [Example 24, (3-Borono-5-((3-borono-5-fluorophenyl)sulfonyl)benzoyl)glycine], the results for the Kd in test [1] and in test [2] were 1.2 mM and 34 mM, respectively. For `O=C(NCC[C@H](NC(=O)c1ccc(B(O)O)c(F)c1)C(=O)O)c1ccc(B(O)O)c(F)c1` [Example 4, (S)-2,4-bis(4-borono-3-fluorobenzamido)butanoic acid], the Kd in test [1] was 2.6 mM; in test [2], 6.5 mM. As for `O=C(NC[C@H](NC(=O)c1ccc2c(c1F)B(O)OC2)C(=O)O)c1ccc2c(c1F)B(O)OC2` [Example 15, (S)-2,3-Bis(7-fluoro-1-hydroxy-1,3-dihydrobenzo[c][1,2]oxaborole-6-carboxamido)propanoic acid], the figures for the Kd in test [1] and in test [2] were 0.5 mM and 10 mM, respectively. As to `O=C(NC[C@H](NC(=O)c1cc2c(cc1F)COB2O)C(=O)O)c1cc2c(cc1F)COB2O` [Example 16, (S)-2,3-Bis(5-fluoro-1-hydroxy-1,3-dihydrobenzo[c][1,2]oxaborole-6-carboxamido)propanoic acid], the Kd in test [1] stood at 4.2 mM; in test [2], 37 mM. The matching figures for `O=C(O)CN(CCNC(=O)c1cc2c(cc1F)COB2O)C(=O)c1cc2c(cc1F)COB2O` [Example 7, N-(5-Fluoro-1-hydroxy-1,3-dihydrobenzo[c][1,2]oxaborole-6-carbonyl)-N-(2-(5-fluoro-1-hydroxy-1,3-dihydrobenzo[c][1,2]oxaborole-6-carboxamido)ethyl)glycine]: 1.5 mM and 24.1 mM. The matching figures for `O=C(O)CN=S(=O)(c1cc(OC(F)(F)F)cc(B(O)O)c1)c1cc(OC(F)(F)F)cc(B(O)O)c1` [Example 44, 2-((Bis(3-borono-5-(trifluoromethoxy)phenyl)(oxo)-λ6-sulfanylidene)amino)acetic acid]: 0.8 mM and 41 mM. Consider `O=C(O)CNC(=O)c1cc(B(O)O)cc(C(F)(F)c2cc(B(O)O)cc(C(F)(F)F)c2)c1` [Example 18, (3-Borono-5-((3-borono-5-(trifluoromethyl)phenyl)difluoromethyl)benzoyl)glycine], for which the Kd was 0.4 mM in test [1] and 13 mM in test [2]. With `O=C(O)CNC(=O)c1cc(B(O)O)cc(C(=O)c2cc(B(O)O)cc(C(F)(F)F)c2)c1` [Example 19, (3-Borono-5-(3-borono-5-(trifluoromethyl)benzoyl)benzoyl)glycine], the equilibrium dissociation constant (Kd) turned out to be 1.5 mM in test [1] and 17 mM in test [2].

`O=C(O)c1c(C(F)(F)F)cc(B(O)O)cc1S(=O)(=O)c1cc(B(O)O)cc(C(F)(F)F)c1` [Example 43, 4-Borono-2-((3-borono-5-(trifluoromethyl)phenyl)sulfonyl)-6-(trifluoromethyl)benzoic acid]: the Kd in test [1] was determined as 0.7 mM; in test [2], 22 mM. `O=C(O)c1cc(CNC(=O)c2ccc(B(O)O)cc2F)cc(CNC(=O)c2ccc(B(O)O)cc2F)c1` [Example 1, 3,5-Bis((4-borono-2-fluorobenzamido)methyl)benzoic acid]: the dissociation constant Kd in test [1] is 3.1 mM; in test [2], 8.6 mM. The like results for `O=C(O)CN(CCNC(=O)c1ccc2c(c1F)B(O)OC2)C(=O)c1ccc2c(c1F)B(O)OC2` [Example 5, N-(7-Fluoro-1-hydroxy-1,3-dihydrobenzo[c][1,2]oxaborole-6-carbonyl)-N-(2-(7-fluoro-1-hydroxy-1,3-dihydrobenzo[c][1,2]oxaborole-6-carboxamido)ethyl)glycine] were, in that order, 0.8 mM and 40 mM.

In the case of `O=C(O)CCC(=O)N1C[C@H](NC(=O)c2cc3c(c(C(F)(F)F)c2)COB3O)[C@@H](NC(=O)c2cc3c(c(C(F)(F)F)c2)COB3O)C1` [Example 27, 4-((3S,4S)-3,4-Bis(1-hydroxy-4-(trifluoromethyl)-1,3-dihydrobenzo[c][1,2]oxaborole-6-carboxamido)pyrrolidin-1-yl)-4-oxobutanoic acid], the Kd in test [1] was 1.1 mM; in test [2], 41 mM. With `O=C(O)c1cc(B(O)O)cc(C(=O)c2cc(F)cc(B(O)O)c2)c1` [Example 12, 3-Borono-5-(3-borono-5-fluorobenzoyl)benzoic acid], the Kd was determined as 1.1 mM in test [1] and 18 mM in test [2]. In the case of `O=C(O)c1cc(CNC(=O)c2ccc(B(O)O)c(F)c2)cc(CNC(=O)c2ccc(B(O)O)c(F)c2)c1` [Example 2, 3,5-Bis((4-borono-3-fluorobenzamido)methyl)benzoic acid], the Kd in test [1] was 3.4 mM; in test [2], 5.4 mM. In the case of `O=C(NCCCC[C@H](NC(=O)c1cc2c(cc1F)B(O)OC2)C(=O)O)c1ccc(B(O)O)cc1F` [Example 14, N^6-(4-Borono-2-fluorobenzoyl)-N^2-(6-fluoro-1-hydroxy-1,3-dihydrobenzo[c][1,2]oxaborole-5-carbonyl)-L-lysine], the results for the Kd in test [1] and in test [2] were 3.2 mM and 16 mM, respectively. Take `CS(=O)(=O)c1cc(C(=O)NCCN(CC(=O)O)C(=O)c2cc3c(c(S(C)(=O)=O)c2)COB3O)cc2c1COB2O` [Example 41, N-(1-Hydroxy-4-(methylsulfonyl)-1,3-dihydrobenzo[c][1,2]oxaborole-6-carbonyl)-N-(2-(1-hydroxy-4-(methylsulfonyl)-1,3-dihydrobenzo[c][1,2]oxaborole-6-carboxamido)ethyl)glycine]: the Kd in test [1] turned out to be 1.4 mM; in test [2] it was 4.4 mM. For the molecule `O=C(O)CN=S(=O)(c1cc(Cl)cc(B(O)O)c1)c1cc(Cl)cc(B(O)O)c1` [Example 35, 2-((Bis(3-borono-5-chlorophenyl)(oxo)-λ6-sulfanylidene)amino)acetic acid], the Kd in test [1] was found to be 0.6 mM; in test [2], 20 mM. The matching figures for `O=C(O)CN(CCNC(=O)c1cc2c(cc1F)B(O)OC2)C(=O)c1cc2c(cc1F)B(O)OC2` [Example 9, N-(6-Fluoro-1-hydroxy-1,3-dihydrobenzo[c][1,2]oxaborole-5-carbonyl)-N-(2-(6-fluoro-1-hydroxy-1,3-dihydrobenzo[c][1,2]oxaborole-5-carboxamido)ethyl)glycine]: 2.6 mM and 67.9 mM.

In the case of `O=C(NCCCC[C@H](NC(=O)c1cc2c(cc1F)B(O)OC2)C(=O)O)c1cc2c(cc1F)B(O)OC2` [Example 10, N^2,N^6-Bis(6-fluoro-1-hydroxy-1,3-dihydrobenzo[c][1,2]oxaborole-5-carbonyl)-L-lysine], the Kd in test [1] was 3.2 mM. In turn, `O=C(NC[C@H](NC(=O)c1cc(F)c2c(c1)B(O)OC2)C(=O)O)c1cc(F)c2c(c1)B(O)OC2` [Example 17, (S)-2,3-Bis(4-fluoro-1-hydroxy-1,3-dihydrobenzo[c][1,2]oxaborole-6-carboxamido) propanoic acid] yielded a Kd in test [1] of 1.6 mM.

Take `O=C(O)CN(CCNC(=O)c1cc2c(c(S(=O)(=O)C(F)(F)F)c1)COB2O)C(=O)c1cc2c(c(S(=O)(=O)C(F)(F)F)c1)COB2O` [Example 42, N-(1-Hydroxy-4-((trifluoromethyl)sulfonyl)-1,3-dihydrobenzo[c][1,2]oxaborole-6-carbonyl)-N-(2-(1-hydroxy-4-((trifluoromethyl)sulfonyl)-1,3-dihydrobenzo-[c][1,2]oxaborole-6-carboxamido)ethyl)glycine]: in test [1], the Kd was 1.1 mM. In the case of `O=C(O)CCC(=O)N1C[C@H](NC(=O)c2ccc3c(c2F)B(O)OC3)[C@@H](NC(=O)c2ccc3c(c2F)B(O)OC3)C1` [Example 21, 4-((3S,4S)-3,4-Bis(7-fluoro-1-hydroxy-1,3-dihydrobenzo[c][1,2]oxaborole-6-carboxamido)pyrrolidin-1-yl)-4-oxobutanoic acid], binding in test [1] was characterised by a dissociation constant (Kd) of 2.6 mM.

Turning to `O=C(NC[C@H](NC(=O)c1ccc2c(c1)B(O)OC2)C(=O)O)c1ccc2c(c1)B(O)OC2` [Example 40, (S)-2,3-Bis(1-hydroxy-1,3-dihydrobenzo[c][1,2]oxaborole-6-carboxamido)propanoic acid], the affinity in test [1], expressed as Kd, was 2 mM. The same measure, in the same setting: the figure for `O=C(O)CN=S(=O)(c1cc2c(c(C(F)(F)F)c1)COB2O)c1cc2c(c(C(F)(F)F)c1)COB2O` [Example 38, 2-((Bis(1-hydroxy-4-(trifluoromethyl)-1,3-dihydrobenzo[c][1,2]oxaborol-6-yl)(oxo)-λ6-sulfanylidene)amino)acetic acid] is 3.7 mM; for `O=C(O)c1cc(CNC(=O)c2ccc3c(c2F)B(O)OC3)cc(CNC(=O)c2ccc3c(c2F)B(O)OC3)c1` [Example 6, 3,5-Bis((7-fluoro-1-hydroxy-1,3-dihydrobenzo[c][1,2]oxaborole-6-carboxamido)methyl) benzoic acid] it is 1.1 mM.
